Measurements taken from patent US12208108B2, “Drug targets of delayed aging and human brain diseases” (Texas Tech University System, priority 2016, dated 2025).
Marks after values point to notes of the source that are not given here.

System: Human Neuroblastoma (SHSY5Y) cells
Test: mRNA levels by Sybr-Green real-time RT-PCR
Assay type: cell-based
Procedure: mRNA levels of mitochondrial dynamics, mitochondrial biogenesis and synaptic genes. Using the reagent TriZol (Invitrogen), the inventors isolated total RNA from all DDQ-treated and untreated cells. mRNA levels of mitochondrial dynamic (Drp1, Fis1, Mfn1 and Mfn2), mitochondrial biogenesis genes (PGC1α, Nrf1, Nrf2 and TFAM) and synaptic genes (PSD95, synaptophysin, synapsin 1, synapsin 2, synaptobrevin 1, synaptobrevin 2, synaptopodin, and GAP43) were measured by using Sybr-Green chemistry-based quantitative real time RT-PCR.
FIG. 3 illustrates the experimental strategy of the cell culture work and including treatments. The cells were grown in a medium (1:1 DMEM and F12, 10% FBS, lx penicillin, and streptomycin) at 37° C. in a humified incubator with a 5% CO2 environment. After seeding were allowed to grow for 24-48 hrs or until 80% confluence in six-well plates and used for experiments. The inventors used five different groups of cells—(1) untreated SHSY5Y cells; (2) SHSY5Y cells treated with DDQ (250 nM final concentration) for 24 hrs; (3) SHSY5Y cells incubated with Aβ peptide 1-42 (20 uM final concentration) for 6 hrs; (4) SHSY5Y cells treated Aβ for 6 hrs+DDQ for 24 hrs and (5) SHSY5Y cells treated DDQ for 24 hrs and Aβ for 6 hrs. Half a million SHSY5Y cells were suspended per well into six-well plates. The inventors used Aβ peptide 1-42 and DDQ 250 nM in the experiments. After treatments, the inventors harvested cells, conducted experiments to measure the levels mRNA using Sybr-Green based real-time RT-PCR, proteins using immunoblotting and immunofluorescence analysis and cell viability using MTT assay. The inventors counted the number of mitochondria by electron microscopy.
Quantification of mitochondrial dynamics, biogenesis and synaptic genes expression using real-time RT-PCR. Using the reagent TriZol (Invitrogen), the inventors isolated total RNA from control and experimental groups (FIG. 3). Using primer express Software (Applied Biosystems), the inventors designed the oligonucleotide primers for the housekeeping genes β-actin, mitochondrial structural genes; fission (Drp1 and Fis1); fusion genes (MFN1, MFN2); mitochondrial biogenesis genes PGC1a, Nrf1, Nrf2 and TFAM; and synaptic genes (PSD95, synaptophysin, synapsin 1, synapsin 2, synaptobrevin 1, synaptobrevin 2, synaptopodin, and GAP43). Using SYBR-Green chemistry-based quantitative real-time RT-PCR, the inventors measured mRNA expression of the genes mentioned above as described by Manczak et al..

[1] = Aβ + DDQ (Aβ1-42 20 μM 6 hrs, then DDQ 24 hrs) vs untreated cells
[2] = Aβ + DDQ (Aβ1-42 6 hrs, then DDQ 24 hrs) vs Aβ treated cells
[3] = DDQ 250 nM 24 hrs vs untreated cells
[4] = DDQ + Aβ (DDQ 24 hrs, then Aβ1-42 6 hrs) vs Aβ treated cells
[5] = DDQ + Aβ (DDQ 24 hrs, then Aβ1-42 6 hrs) vs untreated cells

## CCOP(=O)(OCC)C(NCCc1ccc(O)c(O)c1)c1ccnc2ccccc12 (stereo not shown) [DDQ, diethyl(3,4-dihydroxyphenethylamine)(quinolin-4-yl)methylphosphonate]
[1]
  Drp1 mRNA fold changes: 1.9* fold
  Fis1 mRNA fold changes: −1.2 fold
  GAP43 mRNA fold changes: 1.1 fold
  Mfn1 mRNA fold changes: 1.4 fold
  Mfn2 mRNA fold changes: 1.3 fold
  Nrf1 mRNA fold changes: −1.7* fold
  Nrf2 mRNA fold changes: −1.3 fold
  PGC1a mRNA fold changes: −1.8* fold
  PSD95 mRNA fold changes: −1.4* fold
  Synapsin1 mRNA fold changes: 1.1 fold
  Synapsin2 mRNA fold changes: 1.1 fold
  Synaptobrevin1 mRNA fold changes: −1.1 fold
  Synaptobrevin2 mRNA fold changes: 1.0 fold
  Synaptophysin mRNA fold changes: −2.4* fold
  Synaptopodin mRNA fold changes: −1.1 fold
  TFAM mRNA fold changes: −2.0* fold
[2]
  Drp1 mRNA fold changes: −1.7* fold
  Fis1 mRNA fold changes: −2.0* fold
  GAP43 mRNA fold changes: 1.7* fold
  Mfn1 mRNA fold changes: 3.3** fold
  Mfn2 mRNA fold changes: 3.4** fold
  Nrf1 mRNA fold changes: 2.6 fold
  Nrf2 mRNA fold changes: 2.1 fold
  PGC1a mRNA fold changes: 2.5 fold
  PSD95 mRNA fold changes: 1.8* fold
  Synapsin1 mRNA fold changes: 2.1* fold
  Synapsin2 mRNA fold changes: 2.4* fold
  Synaptobrevin1 mRNA fold changes: 2.0* fold
  Synaptobrevin2 mRNA fold changes: 2.1* fold
  Synaptophysin mRNA fold changes: 1.6* fold
  Synaptopodin mRNA fold changes: 2.0* fold
  TFAM mRNA fold changes: 2.3 fold
[3]
  Drp1 mRNA fold changes: −2.2* fold
  Drp1 mRNA levels, fold decrease: 2.2 fold
  Fis1 mRNA fold changes: −4.4*** fold
  Fis1 mRNA levels, fold decrease: 4.4 fold
  GAP43 mRNA fold changes: 1.2 fold
  Mfn1 mRNA fold changes: 1.7 fold
  Mfn2 mRNA fold changes: 2.3 fold
  Nrf1 mRNA fold changes: 1.9 fold
  Nrf2 mRNA fold changes: 2.7 fold
  PGC1a mRNA fold changes: 1.5 fold
  PSD95 mRNA fold changes: 1.4 fold
  Synapsin1 mRNA fold changes: 1.0 fold
  Synapsin2 mRNA fold changes: 1.7 fold
  Synaptobrevin1 mRNA fold changes: 1.0 fold
  Synaptobrevin2 mRNA fold changes: 1.3 fold
  Synaptophysin mRNA fold changes: 1.4 fold
  Synaptopodin mRNA fold changes: 1.0 fold
  TFAM mRNA fold changes: 1.7 fold
[4]
  Drp1 mRNA fold changes: −4.6*** fold
  Fis1 mRNA fold changes: −2.5* fold
  GAP43 mRNA fold changes: 1.7* fold
  Mfn1 mRNA fold changes: 2.9** fold
  Mfn2 mRNA fold changes: 2.9** fold
  Nrf1 mRNA fold changes: 4.9 fold
  Nrf2 mRNA fold changes: 2.6 fold
  PGC1a mRNA fold changes: 3.9 fold
  PSD95 mRNA fold changes: 2.1* fold
  Synapsin1 mRNA fold changes: 2.5* fold
  Synapsin2 mRNA fold changes: 2.9** fold
  Synaptobrevin1 mRNA fold changes: 1.7* fold
  Synaptobrevin2 mRNA fold changes: 2.3* fold
  Synaptophysin mRNA fold changes: 2.4* fold
  Synaptopodin mRNA fold changes: 2.1* fold
  TFAM mRNA fold changes: 3.2 fold
[5]
  Drp1 mRNA fold changes: −2.1* fold
  Fis1 mRNA fold changes: −1.3 fold
  GAP43 mRNA fold changes: 1.1 fold
  Mfn1 mRNA fold changes: 1.2 fold
  Mfn2 mRNA fold changes: 1.1 fold
  Nrf1 mRNA fold changes: 1.1 fold
  Nrf2 mRNA fold changes: −1.1 fold
  PGC1a mRNA fold changes: −1.1 fold
  PSD95 mRNA fold changes: −1.2 fold
  Synapsin1 mRNA fold changes: 1.3 fold
  Synapsin2 mRNA fold changes: 1.8* fold
  Synaptobrevin1 mRNA fold changes: −1.4 fold
  Synaptobrevin2 mRNA fold changes: 1.0 fold
  Synaptophysin mRNA fold changes: −1.6* fold
  Synaptopodin mRNA fold changes: −1.1 fold
  TFAM mRNA fold changes: −1.5* fold
